pKi: −log10 of the molar value. Counter-ions that a name gives are not always drawn. Like-named read-outs stand apart in the source and are kept apart here.

Test [1] addresses mouse TAAR1 (Mus musculus (Mouse), UniProt Q923Y8). The test is described as follows: Radioligand binding assay on mouse TAAR1. As to conditions: for Ki: read-out: Ki (μM) mouse. In short, it runs like this: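 Displacement of the tritiated oxazol-2-ylamine radioligand was measured by filtration and scintillation counting after 1 h incubation at 4 °C. Test concentrations ran 10 pM–10 μM in duplicate, with 10 μM cold ligand giving nonspecific binding. The receptor source was membranes of a stable mouse TAAR1 HEK293 line.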

For test [2], the target named is rat TAAR1 (Rattus norvegicus (Rat), UniProt Q923Y9). The test is described as follows: Radioligand binding assay on rat TAAR1. The note with it: for Ki: read-out: Ki (μM) rat. In short, it runs like this: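 Membranes from HEK293 cells stably expressing rat TAAR1, with Kd checked per batch by saturation. Competition with ³H-(S)-4-[(ethyl-phenyl-amino)-methyl]-4,5-dihydro-oxazol-2-ylamine, compounds 10 pM–10 μM in duplicate, 1 hr at 4 °C. Filtration then scintillation counting; nonspecific binding defined with 10 μM unlabeled ligand.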

Setting [3] is: mouse TAAR1, HEK-293 membranes, first value of cell mouse/rat.
Where [4] appears, read: rat TAAR1, HEK-293 membranes, second value of cell mouse/rat.

Chain of rat TAAR1 (Q923Y9 whole entry): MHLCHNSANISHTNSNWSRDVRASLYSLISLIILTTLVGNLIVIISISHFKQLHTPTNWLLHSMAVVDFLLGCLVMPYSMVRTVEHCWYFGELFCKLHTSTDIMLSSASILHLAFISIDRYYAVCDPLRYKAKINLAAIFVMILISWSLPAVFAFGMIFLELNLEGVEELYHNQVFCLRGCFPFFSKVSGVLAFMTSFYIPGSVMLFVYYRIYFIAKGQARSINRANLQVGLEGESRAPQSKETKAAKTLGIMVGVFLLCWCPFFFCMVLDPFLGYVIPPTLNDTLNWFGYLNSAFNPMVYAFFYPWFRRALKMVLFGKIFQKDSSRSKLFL
Chain of mouse TAAR1 (Q923Y8 whole entry): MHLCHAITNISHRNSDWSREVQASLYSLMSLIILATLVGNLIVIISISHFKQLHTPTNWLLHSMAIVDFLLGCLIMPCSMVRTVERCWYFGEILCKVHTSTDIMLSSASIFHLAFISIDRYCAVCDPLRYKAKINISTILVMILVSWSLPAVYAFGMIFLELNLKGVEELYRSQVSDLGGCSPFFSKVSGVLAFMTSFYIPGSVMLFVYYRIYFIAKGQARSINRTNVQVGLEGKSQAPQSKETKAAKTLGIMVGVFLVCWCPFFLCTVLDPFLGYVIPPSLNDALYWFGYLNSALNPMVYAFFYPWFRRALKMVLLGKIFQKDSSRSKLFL

As to `CCOc1ccc(C(=O)Nc2ccc([C@H]3CNCCO3)cc2)cc1` [Example 276, (S)-4-Ethoxy-N-(4-(morpholin-2-yl)phenyl)benzamide hydrochloride], the Ki came to 0.0558 µM in test [1] (setting [3]) and 0.0008 µM in test [2].

For the molecule `COC(C(=O)Nc1ccc(C2CCNC2)cc1)c1ccc(Cl)cc1` (racemic) [Example 60, (RS)-2-(4-Chloro-phenyl)-2-methoxy-N—((RS)-4-pyrrolidin-3-yl-phenyl)-acetamide], the Ki in test [1] (setting [3]) came to 2.83 µM; in test [2] (setting [4]), 0.0457 µM.

On to `O=C(Nc1ccc(CC2CCNC2)cc1)c1ccc(Cl)cc1` (racemic) [Example 149, (RS)-4-Chloro-N-(4-pyrrolidin-3-ylmethyl-phenyl)-benzamide hydrochloride], for which the Ki in test [1] (setting [3]) was determined as 0.0011 µM; in test [2] (setting [4]), 0.001 µM.

As for `O=C(Nc1ccc(C2CCCNC2)cc1)c1cccc(Cl)c1` (racemic) [Example 92, (RS)-3-Chloro-N-(4-piperidin-3-yl-phenyl)-benzamide hydrochloride], the Ki in test [1] (setting [3]) and in test [2] (setting [4]) was 0.0238 µM in each case.

Turning to `O=C(Nc1ccc([C@H]2CNCCO2)cc1)c1ccc(Cl)cc1I` [Example 301, (S)-4-Chloro-2-iodo-N-(4-(morpholin-2-yl)phenyl)benzamide], the Ki in test [1] (setting [3]) amounted to 0.0509 µM; in test [2] (setting [4]), 0.007 µM.

On to `Cc1cc(C(=O)Nc2ccc([C@@H]3CNCCO3)cc2)cc(Cl)n1` [Example 285, (R)-2-Chloro-6-methyl-N-(4-(morpholin-2-yl)phenyl)isonicotinamide hydrochloride], for which the Ki in test [1] is 0.0082 µM; in test [2] (setting [4]) it was 0.005 µM.

With `O=C(Nc1ccc(C2CCNC2)cc1)c1cccc(Cl)c1` (racemic) [Example 20, (RS)-3-Chloro-N-(4-pyrrolidin-3-yl-phenyl)-benzamide hydrochloride], the Ki in test [1] (setting [3]) was 0.0005 µM; in test [2] (setting [4]) it was 0.0077 µM.

For the molecule `O=C(Nc1ccc(C2CNCCO2)cc1)c1cccc(Cl)c1` (racemic) [Example 209, (RS)-3-chloro-N-(4-(morpholin-2-yl)phenyl)benzamide hydrochloride], the Ki in test [1] (setting [3]) was 0.0078 µM; in test [2] (setting [4]) it was 0.0016 µM.

For `O=C(Nc1ccc(C2CCNC2)cc1)c1ccc(OCC(F)(F)F)nc1` (racemic) [Example 89, (RS)—N-(4-Pyrrolidin-3-yl-phenyl)-6-(2,2,2-trifluoro-ethoxy)-nicotinamide hydrochloride], the figures for the Ki in test [1] (setting [3]) and in test [2] (setting [4]) were 0.0059 µM and 0.006 µM, respectively.

In the case of `CN1CCC(c2ccc(NC(=O)c3ccc(Cl)cc3)cc2)C1` (racemic) [Example 32, (RS)-4-Chloro-N-[4-(1-methyl-pyrrolidin-3-yl)-phenyl]-benzamide], the results for the Ki in test [1] (setting [3]) and in test [2] (setting [4]) were 0.0005 µM and 0.0858 µM, respectively.

As to `O=C(Nc1ccc(C2CNCCO2)cc1)c1csc(-c2ccccc2)n1` (racemic) [Example 233, (RS)—N-(4-(Morpholin-2-yl)phenyl)-2-phenylthiazole-4-carboxamide hydrochloride], the inhibition constant Ki in test [1] (setting [3]) came out at 0.0008 µM; in test [2] (setting [4]), 0.0014 µM.

In the case of `O=C(Nc1ccc(C2CNCCO2)cc1)c1ccc(OCc2ccccc2)cc1` (racemic) [Example 192, (RS)-4-(benzyloxy)-N-(4-(morpholin-2-yl)phenyl)benzamide hydrochloride], the Ki in test [1] (setting [3]) stood at 0.0052 µM; in test [2] (setting [4]), 0.0113 µM.

With `C[C@@H]1CNC[C@H](c2ccc(NC(=O)c3ccc(Cl)nc3)cc2)O1` [Example 310, 6-Chloro-N-(4-((2S,6R)-6-methylmorpholin-2-yl)phenyl)nicotinamide hydrochloride], the Ki in test [1] worked out at 0.0476 µM; in test [2] (setting [4]), 0.0108 µM.

On to `O=C(Nc1ccc([C@H]2CNCCO2)cc1)c1ccc(C(F)(F)F)nc1` [Example 284, (S)—N-(4-(Morpholin-2-yl)phenyl)-6-(trifluoromethyl)nicotinamide hydrochloride], for which the Ki came to 0.0128 µM in test [1] and 0.005 µM in test [2].

As for `COC(=O)c1ccc(COc2ccc(C(=O)Nc3ccc(C4CNCCO4)cc3)cc2)cc1` (racemic) [Example 211, (RS)-Methyl 4-((4-(4-(morpholin-2-yl)phenylcarbamoyl)phenoxy)methyl)benzoate hydrochloride], the Ki in test [1] (setting [3]) stood at 0.004 µM; in test [2] (setting [4]), 0.0009 µM.

With `O=C(Cc1ccc(Cl)cc1)Nc1ccc(C2CCCNC2)cc1` (racemic) [Example 102, (RS)-2-(4-Chloro-phenyl)-N-(4-piperidin-3-yl-phenyl)-acetamide hydrochloride], the Ki amounted to 0.0108 µM in test [1] (setting [3]) and 0.0894 µM in test [2] (setting [4]).

For the molecule `O=C(Nc1ccc(CCC2CCCCN2)cc1)c1ccc(Cl)nc1` (racemic) [Example 173, (RS)-6-Chloro-N-(4-(2-(piperidin-2-yl)ethyl)phenyl)nicotinamide hydrochloride], the inhibitory constant (Ki) was 0.824 µM in test [1] (setting [3]) and 0.0218 µM in test [2] (setting [4]).

On to `CCOc1ccc(C(=O)Nc2ccc(C3CCCNC3)cc2)nc1` (racemic) [Example 179, (RS)-5-Ethoxy-pyridine-2-carboxylic acid (4-piperidin-3-yl-phenyl)-amide; hydrochloride], for which the values for the Ki in test [1] (setting [3]) and in test [2] (setting [4]) were 0.0008 µM and 0.0022 µM, respectively.

In the case of `Cc1cc(C(=O)Nc2ccc([C@@H]3CCCNC3)cc2)ccc1Cl` [Example 226, (S)-4-Chloro-3-methyl-N-(4-(piperidin-3-yl)phenyl)benzamide hydrochloride], the figures for the Ki in test [1] and in test [2] were 0.0555 µM and 0.001 µM, respectively.

`O=C(Nc1ccc(C2CCNC2)cc1)c1cc(Cl)ccn1` (racemic) [Example 86, (RS)-4-Chloro-pyridine-2-carboxylic acid (4-pyrrolidin-3-yl-phenyl)-amide hydrochloride]: the Ki is 0.0051 µM in test [1] (setting [3]) and 0.116 µM in test [2] (setting [4]).

Turning to `O=C(Nc1ccc(CCC2CCCNC2)cc1)c1ncccc1F` (racemic) [Example 134, (RS)-3-Fluoro-pyridine-2-carboxylic acid [4-(2-piperidin-3-yl-ethyl)-phenyl]-amide hydrochloride], the Ki in test [1] (setting [3]) came to 2.06 µM; in test [2] (setting [4]), 0.106 µM.

On to `C[C@H]1CNC[C@H](c2ccc(NC(=O)c3cccc(Cl)c3)cc2)O1` [Example 309, 3-Chloro-N-(4-((2S,6S)-6-methylmorpholin-2-yl)phenyl)benzamide hydrochloride], for which the Ki in test [1] came out at 0.116 µM; in test [2] (setting [4]), 0.0023 µM.

For the molecule `O=C(Nc1ccc(CCC2CCCN2)cc1)c1ccc(F)cc1` (racemic) [Example 156, (RS)-4-Fluoro-N-[4-(2-pyrrolidin-2-yl-ethyl)-phenyl]-benzamide hydrochloride], the results for the inhibition constant Ki in test [1] (setting [3]) and in test [2] (setting [4]) were 0.153 µM and 0.002 µM, respectively.

`Cc1ccc(C(=O)Nc2ccc([C@@H]3CCCNC3)cc2)cc1Cl` [Example 225, (S)-3-Chloro-4-methyl-N-(4-(piperidin-3-yl)phenyl)benzamide hydrochloride]: the inhibitory constant (Ki) was determined as 0.0189 µM in test [1] and 0.0006 µM in test [2] (setting [4]).

With `O=C(Nc1ccc(CCC2CCNC2)cc1)c1ccc(Cl)cn1` (racemic) [Example 117, (RS)-5-Chloro-pyridine-2-carboxylic acid [4-(2-pyrrolidin-3-yl-ethyl)-phenyl]-amide hydrochloride], the Ki is 0.0531 µM in test [1] (setting [3]) and 0.0029 µM in test [2] (setting [4]).

On to `CC(C(=O)Nc1ccc(C2CCCNC2)cc1)c1cccc(Cl)c1` (racemic) [Example 111, (RS)-2-(3-Chloro-phenyl)-N—((RS)-4-piperidin-3-yl-phenyl)-propionamide], for which the results for the inhibition constant (Ki) in test [1] (setting [3]) and in test [2] (setting [4]) were 0.0349 µM and 0.0382 µM, respectively.

For the molecule `Cc1ccc(C(=O)Nc2ccc([C@@H]3CCCNC3)cc2)cc1C` [Example 227, (S)-3,4-Dimethyl-N-(4-(piperidin-3-yl)phenyl)benzamide hydrochloride], the inhibition constant Ki in test [1] worked out at 0.177 µM; in test [2] (setting [4]), 0.0012 µM.

Turning to `O=C(Nc1ccc(CCC2CCNC2)cc1)c1ncc(F)cc1F` (racemic) [Example 133, (RS)-3,5-Difluoro-pyridine-2-carboxylic acid [4-(2-pyrrolidin-3-yl-ethyl)-phenyl]-amide hydrochloride], the Ki amounted to 1.52 µM in test [1] (setting [3]) and 0.0174 µM in test [2] (setting [4]).

As for `CSc1cnc(C(=O)Nc2ccc([C@@H]3CCCNC3)cc2)cn1` [Example 257, (S)-5-(Methylthio)-N-(4-(piperidin-3-yl)phenyl)pyrazine-2-carboxamide], the Ki in test [1] (setting [3]) came out at 0.786 µM; in test [2] (setting [4]), 0.004 µM.

As to `CCCc1ccc(C(=O)Nc2ccc(C3CCNC3)cc2)cc1` (racemic) [Example 53, (RS)-4-Propyl-N-(4-pyrrolidin-3-yl-phenyl)-benzamide hydrochloride], the results for the Ki in test [1] (setting [3]) and in test [2] (setting [4]) were 0.0016 µM and 0.0053 µM, respectively.

Turning to `CN(C(=O)Oc1ccccc1)c1ccc(C2CCNC2)cc1` (racemic) [Example 22, (RS)-Methyl-(4-pyrrolidin-3-yl-phenyl)-carbamic acid phenyl ester], the pKi in test [1] was 6.28; in test [2], 5.63.

With `O=C(Nc1ccc(C2CNCCO2)cc1)c1ccc(O)cc1` (racemic) [Example 199, (RS)-4-Hydroxy-N-(4-(morpholin-2-yl)phenyl)benzamide hydrochloride], the Ki amounted to 1.16 µM in test [1] (setting [3]) and 0.238 µM in test [2] (setting [4]).

Turning to `N#Cc1ccc(C(=O)Nc2ccc(C3CCNC3)cc2)nc1` (racemic) [Example 165, (RS)-5-Cyano-N-(4-(pyrrolidin-3-yl)phenyl)picolinamide hydrochloride], the Ki in test [1] (setting [3]) worked out at 0.126 µM; in test [2] (setting [4]) it was 0.0411 µM.

The values above are taken from patent publication US9452980B2, “Substituted benzamides” (Hoffmann-La Roche Inc., priority 2009, dated 2016).
